Test results published in publication PMC7192969 (Journal of Pharmaceutical Analysis, 2019).

Assays:
SD rats = test: Freund's adjuvant induced hind paw edema, anti-inflammatory effect; format: in vivo, rat
[1] = Pharmacokinetics of aconitine in plasma after oral administration; format: in vivo; conditions: male, Sprague-Dawley, rat, 1 mg/kg; for half-life: t1/2z
[2] = Group A: aconitine at 1 mg/kg oral, alone
[3] = Group B: aconitine at 1 mg/kg + liquiritin at 10 mg/kg oral
[4] = Group D: aconitine at 1 mg/kg + glycyrrhizic acid at 10 mg/kg oral
[5] = Group E: aconitine at 1 mg/kg + glycyrrhetinic acid at 10 mg/kg oral
[6] = 0 h, 10 mg/kg oral in combination with aconitine 1 mg/kg
[7] = 1 h, 10 mg/kg oral in combination with aconitine 1 mg/kg
[8] = 2 h, 10 mg/kg oral in combination with aconitine 1 mg/kg
[9] = 4 h, 10 mg/kg oral in combination with aconitine 1 mg/kg
[10] = 6 h, 10 mg/kg oral in combination with aconitine 1 mg/kg

Q: For `CCN1C[C@]2(COC)[C@H](O)C[C@H](OC)[C@@]34[C@@H]5C[C@@]6(O)[C@H](OC(=O)c7ccccc7)[C@@H]5[C@@](OC(C)=O)([C@@H]([C@H](OC)[C@H]23)[C@@H]14)[C@@H](O)[C@@H]6OC` [Aconitine, aconitine], which hind paw volume (SD rats; 0 h, 1 mg/kg oral, alone) is on record?
A: 1.70 ± 0.06 mL

Q: And the hind paw volume (SD rats; 1 h, 1 mg/kg oral, alone)?
A: 1.87 ± 0.10∗ mL

Q: And the hind paw volume (SD rats; 2 h, 1 mg/kg oral, alone)?
A: 1.99 ± 0.15 mL

Q: What about the hind paw volume (SD rats; 4 h, 1 mg/kg oral, alone) of the same molecule?
A: 2.02 ± 0.12∗ mL

Q: And the hind paw volume (SD rats; 6 h, 1 mg/kg oral, alone)?
A: 2.19 ± 0.05∗ mL

Q: And the AUC(0-t) [1]?
A: 33.7 ± 7.47 ng·h/mL

Q: And the AUC(0-t) [1, 2]?
A: 25.8 ± 4.36 ng·h/mL

Q: What about the AUC(0-t) [1, 3] of the same molecule?
A: 30 ± 6.63 ng·h/mL

Q: And the AUC(0-t) [1, 4]?
A: 29.1 ± 4.44 ng·h/mL

Q: What about the AUC(0-t) [1, 5] of the same molecule?
A: 19.9 ± 3.61 ng·h/mL

Q: And the AUC(0-inf) [1]?
A: 34.5 ± 7.07 ng·h/mL

Q: And the AUC(0-inf) [1, 2]?
A: 29.1 ± 6.15 ng·h/mL

Q: And the AUC(0-inf) [1, 3]?
A: 31.9 ± 5.6 ng·h/mL

Q: And the AUC(0-inf) [1, 4]?
A: 33.6 ± 6.93 ng·h/mL

Q: What about the AUC(0-inf) [1, 5] of the same molecule?
A: 20.7 ± 3.55 ng·h/mL

Q: What about the Cmax [1] of the same molecule?
A: 9.19 ± 1.38 ng/mL

Q: What about the Cmax [1, 2] of the same molecule?
A: 4.8 ± 0.966 ng/mL

Q: What about the Cmax [1, 3] of the same molecule?
A: 5.77 ± 0.831 ng/mL

Q: And the Cmax [1, 4]?
A: 5.73 ± 0.7 ng/mL

Q: And the Cmax [1, 5]?
A: 5.88 ± 0.73 ng/mL

Q: And the Tmax [1]?
A: 0.667 ± 0.258 h

Q: And the Tmax [1, 2]?
A: 1.08 ± 0.376 h

Q: What about the Tmax [1, 3] of the same molecule?
A: 1.67 ± 0.408 h

Q: What about the Tmax [1, 4] of the same molecule?
A: 1.42 ± 0.585 h

Q: What about the Tmax [1, 5] of the same molecule?
A: 0.833 ± 0.258 h

Q: And the half-life [1]?
A: 131 ± 14.9 min

Q: What about the half-life [1, 2] of the same molecule?
A: 232 ± 61.2 min

Q: And the half-life [1, 3]?
A: 196 ± 88.8 min

Q: And the half-life [1, 4]?
A: 209 ± 63.6 min

Q: And the half-life [1, 5]?
A: 114 ± 25.4 min

Q: For `CC1(C)[C@@H](O)CC[C@]2(C)[C@H]3C(=O)C=C4[C@@H]5C[C@@](C)(C(=O)O)CC[C@]5(C)CC[C@@]4(C)[C@]3(C)CC[C@@H]12` [Glycyrrhetinic acid, glycyrrhetinic acid], which hind paw volume (SD rats; [6]) is on record?
A: 1.71 ± 0.05 mL

Q: What about the hind paw volume (SD rats; [7]) of the same molecule?
A: 1.80 ± 0.02∗# mL

Q: What about the hind paw volume (SD rats; [8]) of the same molecule?
A: 1.79 ± 0.03∗# mL

Q: And the hind paw volume (SD rats; [9])?
A: 1.91 ± 0.09∗ mL

Q: And the hind paw volume (SD rats; [10])?
A: 2.10 ± 0.06∗# mL

Q: Which hind paw volume (SD rats; [6]) does the source give for `CC1(C)[C@@H](O[C@H]2O[C@H](C(=O)O)[C@@H](O)[C@H](O)[C@H]2O[C@@H]2O[C@H](C(=O)O)[C@@H](O)[C@H](O)[C@H]2O)CC[C@]2(C)[C@H]3C(=O)C=C4[C@@H]5C[C@@](C)(C(=O)O)CC[C@]5(C)CC[C@@]4(C)[C@]3(C)CC[C@@H]12` [Glycyrrhizic acid, glycyrrhizic acid] here?
A: 1.72 ± 0.03 mL

Q: What about the hind paw volume (SD rats; [7]) of the same molecule?
A: 1.92 ± 0.05∗ mL

Q: And the hind paw volume (SD rats; [8])?
A: 1.96 ± 0.09∗ mL

Q: What about the hind paw volume (SD rats; [9]) of the same molecule?
A: 1.99 ± 0.11∗ mL

Q: And the hind paw volume (SD rats; [10])?
A: 2.14 ± 0.08∗ mL

Q: With `COc1ccc2c(c1)c(CC(=O)O)c(C)n2C(=O)c1ccc(Cl)cc1` [Indomethacin, reference compound] as the molecule, how does the hind paw volume (SD rats; 0 h, 1 mg/kg oral, alone) read?
A: 1.67 ± 0.09 mL

Q: What about the hind paw volume (SD rats; 1 h, 1 mg/kg oral, alone) of the same molecule?
A: 2.00 ± 0.11 mL

Q: And the hind paw volume (SD rats; 2 h, 1 mg/kg oral, alone)?
A: 2.04 ± 0.15 mL

Q: And the hind paw volume (SD rats; 4 h, 1 mg/kg oral, alone)?
A: 2.15 ± 0.10∗ mL

Q: And the hind paw volume (SD rats; 6 h, 1 mg/kg oral, alone)?
A: 2.19 ± 0.18∗ mL

Q: With `O=C1C[C@@H](c2ccc(O[C@@H]3O[C@H](CO)[C@@H](O)[C@H](O)[C@H]3O)cc2)Oc2cc(O)ccc21` [Liquiritin, liquiritin] as the molecule, how does the hind paw volume (SD rats; [6]) read?
A: 1.70 ± 0.05 mL

Q: What about the hind paw volume (SD rats; [7]) of the same molecule?
A: 1.78 ± 0.12∗ mL

Q: And the hind paw volume (SD rats; [8])?
A: 1.81 ± 0.10∗# mL

Q: And the hind paw volume (SD rats; [9])?
A: 1.83 ± 0.09∗# mL

Q: What about the hind paw volume (SD rats; [10]) of the same molecule?
A: 1.96 ± 0.14∗# mL
